# Data from ChEMBL document CHEMBL5108009, “Positron Emission Tomography (PET) Imaging Tracers for Serotonin Receptors” (J Med Chem, 2022).
# Legend:
# [1] = target: T1, Alpha-1A adrenergic receptor (Homo sapiens, UniProt P35348); assay: Binding affinity to alpha 1A adrenergic receptor (unknown origin) assessed as inhibition constant
# T1 sequence (P35348 whole entry): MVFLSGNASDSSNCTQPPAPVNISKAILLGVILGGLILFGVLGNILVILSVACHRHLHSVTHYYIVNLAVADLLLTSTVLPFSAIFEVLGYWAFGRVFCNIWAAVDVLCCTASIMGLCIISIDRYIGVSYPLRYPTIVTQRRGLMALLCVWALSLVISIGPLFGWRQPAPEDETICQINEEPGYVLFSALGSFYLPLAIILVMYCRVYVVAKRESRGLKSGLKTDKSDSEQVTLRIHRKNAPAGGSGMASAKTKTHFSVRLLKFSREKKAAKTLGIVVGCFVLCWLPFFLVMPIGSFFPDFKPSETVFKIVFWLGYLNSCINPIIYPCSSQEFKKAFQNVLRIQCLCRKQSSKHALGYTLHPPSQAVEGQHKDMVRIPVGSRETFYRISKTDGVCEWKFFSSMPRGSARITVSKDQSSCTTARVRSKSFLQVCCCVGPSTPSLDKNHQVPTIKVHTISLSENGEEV
# [2] = Binding affinity to pig 5-HT1B receptor (unknown origin) assessed as inhibition constant
# [3] = target: T2, 5-hydroxytryptamine receptor 2C (Homo sapiens) (UniProt P28335); assay: Agonist activity at 5-HT2C receptor (unknown origin); format: functional; details: filed as agonist
# T2 sequence (whole entry): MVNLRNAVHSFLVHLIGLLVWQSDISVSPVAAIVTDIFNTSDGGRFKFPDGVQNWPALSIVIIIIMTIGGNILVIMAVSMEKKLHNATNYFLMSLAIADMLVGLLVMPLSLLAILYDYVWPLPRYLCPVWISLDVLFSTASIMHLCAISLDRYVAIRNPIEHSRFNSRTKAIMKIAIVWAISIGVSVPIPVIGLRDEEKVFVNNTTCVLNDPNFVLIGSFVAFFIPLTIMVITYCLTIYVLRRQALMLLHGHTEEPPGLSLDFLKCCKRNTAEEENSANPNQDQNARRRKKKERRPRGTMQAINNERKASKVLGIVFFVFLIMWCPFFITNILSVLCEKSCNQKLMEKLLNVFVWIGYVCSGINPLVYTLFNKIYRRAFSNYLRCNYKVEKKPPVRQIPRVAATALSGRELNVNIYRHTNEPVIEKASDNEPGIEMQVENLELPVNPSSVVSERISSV
# [4] = target: T2, 5-hydroxytryptamine receptor 2C (Homo sapiens); assay: Binding affinity to 5-HT2C (unknown origin); details: filed as agonist
# [5] = target: T3, 5-hydroxytryptamine receptor 7 (Homo sapiens, UniProt P34969); assay: Binding affinity to human recombinant 5-HT7 receptor expressed in CHO cells assessed as inhibition constant; format: cell-based
# T3 sequence (P34969 whole entry): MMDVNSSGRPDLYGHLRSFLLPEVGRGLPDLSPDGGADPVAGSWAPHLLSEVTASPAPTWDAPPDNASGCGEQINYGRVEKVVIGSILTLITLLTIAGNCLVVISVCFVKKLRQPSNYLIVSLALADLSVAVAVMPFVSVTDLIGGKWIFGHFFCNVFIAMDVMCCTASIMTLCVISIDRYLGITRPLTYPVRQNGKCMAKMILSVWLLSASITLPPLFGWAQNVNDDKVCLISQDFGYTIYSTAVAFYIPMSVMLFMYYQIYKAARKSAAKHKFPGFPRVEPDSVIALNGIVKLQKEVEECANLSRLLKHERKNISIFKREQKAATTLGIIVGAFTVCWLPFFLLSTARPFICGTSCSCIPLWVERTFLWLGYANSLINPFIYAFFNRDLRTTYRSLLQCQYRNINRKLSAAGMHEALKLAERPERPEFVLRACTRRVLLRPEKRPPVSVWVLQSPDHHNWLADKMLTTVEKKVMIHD
# [6] = Drug uptake in cynomolgus monkey in brain administered IV measured at 7.5 mins relative to control; format: ADME, tissue-based, Macaca fascicularis; details: in vivo, 0.125 h
# [7] = target: T4, 5-hydroxytryptamine receptor 1A (Homo sapiens, UniProt P08908)
# T4 sequence (P08908 whole entry): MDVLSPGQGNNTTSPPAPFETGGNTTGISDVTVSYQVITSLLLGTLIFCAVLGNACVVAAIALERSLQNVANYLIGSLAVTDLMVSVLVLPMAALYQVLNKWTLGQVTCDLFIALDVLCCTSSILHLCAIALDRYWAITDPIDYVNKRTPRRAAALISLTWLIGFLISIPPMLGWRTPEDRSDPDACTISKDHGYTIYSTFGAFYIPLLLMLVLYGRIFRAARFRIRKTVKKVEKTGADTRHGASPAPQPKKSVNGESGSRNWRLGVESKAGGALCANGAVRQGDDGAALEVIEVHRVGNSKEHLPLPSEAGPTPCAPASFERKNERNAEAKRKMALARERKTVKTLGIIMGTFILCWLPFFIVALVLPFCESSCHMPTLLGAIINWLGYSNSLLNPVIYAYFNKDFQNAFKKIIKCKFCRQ
# [8] = Ratio of drug uptake in rhesus monkey temporal cortex to cerebellum assessed as non-displaceable binding potential; format: ADME, tissue-based, Macaca mulatta; details: in vivo
# [9] = Ratio of drug uptake in rat temporal cortex to cerebellum by measuring radioactivity at 20 mins postinjection; format: ADME, organism-based; details: in vivo
# [10] = Ratio of drug uptake in rat temporal cortex to cerebellum by measuring radioactivity at 10 mins postinjection; format: ADME, organism-based; details: in vivo
# [11] = Lipophilicity, logD of the compound at pH 7.4; format: physicochemical; details: buffer
# [12] = Drug uptake in pig brain cortex measured at 10 to 20 mins postinjection; format: ADME, organism-based, Sus scrofa; details: in vivo, time 10-20 min
# [13] = Ratio of drug uptake in rat hippocampus to cerebellum by measuring radioactivity at […], iv; format: ADME, tissue-based; details: in vivo, dose 25-30 mCi
# [14] = Drug uptake in pig brain cortex assessed as non-displaceable binding potential; format: ADME, tissue-based, Sus scrofa; details: in vivo
# [15] = target: 5-hydroxytryptamine receptor 2A (Homo sapiens, UniProt P28223)
# Sequence of 5-hydroxytryptamine receptor 2A (P28223 whole entry): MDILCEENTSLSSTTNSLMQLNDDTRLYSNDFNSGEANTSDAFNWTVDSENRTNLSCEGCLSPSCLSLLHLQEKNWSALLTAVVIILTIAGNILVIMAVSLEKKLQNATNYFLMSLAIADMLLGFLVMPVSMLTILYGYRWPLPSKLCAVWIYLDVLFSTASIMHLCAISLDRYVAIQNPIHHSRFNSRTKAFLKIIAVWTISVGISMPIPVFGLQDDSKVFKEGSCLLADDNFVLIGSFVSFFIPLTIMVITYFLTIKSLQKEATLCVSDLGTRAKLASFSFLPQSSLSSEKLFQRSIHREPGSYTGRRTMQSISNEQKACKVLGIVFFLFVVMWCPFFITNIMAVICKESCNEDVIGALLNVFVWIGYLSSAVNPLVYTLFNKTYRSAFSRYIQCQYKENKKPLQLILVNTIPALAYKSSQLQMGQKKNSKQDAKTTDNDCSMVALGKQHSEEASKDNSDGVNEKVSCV
# [16] = target: T5, 5-hydroxytryptamine receptor 1A (Rattus norvegicus, UniProt P19327)
# T5 sequence (P19327 whole entry): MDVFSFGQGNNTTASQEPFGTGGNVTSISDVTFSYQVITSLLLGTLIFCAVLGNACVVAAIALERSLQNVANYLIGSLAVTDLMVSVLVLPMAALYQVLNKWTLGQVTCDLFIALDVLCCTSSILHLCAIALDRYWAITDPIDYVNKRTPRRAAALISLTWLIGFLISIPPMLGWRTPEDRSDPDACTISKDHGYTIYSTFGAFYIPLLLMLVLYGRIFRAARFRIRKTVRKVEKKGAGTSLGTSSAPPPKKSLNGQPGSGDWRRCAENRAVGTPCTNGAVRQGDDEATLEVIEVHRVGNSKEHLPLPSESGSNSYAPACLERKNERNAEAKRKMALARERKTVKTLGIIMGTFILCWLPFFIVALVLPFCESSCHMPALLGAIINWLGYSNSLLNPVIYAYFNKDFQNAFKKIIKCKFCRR
# [17] = target: 5-hydroxytryptamine receptor 1D (Homo sapiens, UniProt P28221); assay: Binding affinity to 5-HT1D (unknown origin) assessed as inhibition constant
# Sequence of 5-hydroxytryptamine receptor 1D (P28221 whole entry): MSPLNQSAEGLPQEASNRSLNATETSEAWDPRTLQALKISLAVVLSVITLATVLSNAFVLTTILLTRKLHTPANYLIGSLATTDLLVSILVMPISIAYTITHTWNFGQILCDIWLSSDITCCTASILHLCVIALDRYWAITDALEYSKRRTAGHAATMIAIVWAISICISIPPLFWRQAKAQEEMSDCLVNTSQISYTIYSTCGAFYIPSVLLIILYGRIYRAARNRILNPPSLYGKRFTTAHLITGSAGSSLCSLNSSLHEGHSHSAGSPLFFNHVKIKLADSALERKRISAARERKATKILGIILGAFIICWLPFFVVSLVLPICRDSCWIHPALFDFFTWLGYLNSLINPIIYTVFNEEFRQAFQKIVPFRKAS
# [18] = target: T6, 5-hydroxytryptamine receptor 2C (Homo sapiens, UniProt P28335)
# T6 sequence (P28335 whole entry): T2 sequence (whole entry)
# [19] = target: 5-hydroxytryptamine receptor 1B (Homo sapiens, UniProt P28222)
# Sequence of 5-hydroxytryptamine receptor 1B (P28222 whole entry): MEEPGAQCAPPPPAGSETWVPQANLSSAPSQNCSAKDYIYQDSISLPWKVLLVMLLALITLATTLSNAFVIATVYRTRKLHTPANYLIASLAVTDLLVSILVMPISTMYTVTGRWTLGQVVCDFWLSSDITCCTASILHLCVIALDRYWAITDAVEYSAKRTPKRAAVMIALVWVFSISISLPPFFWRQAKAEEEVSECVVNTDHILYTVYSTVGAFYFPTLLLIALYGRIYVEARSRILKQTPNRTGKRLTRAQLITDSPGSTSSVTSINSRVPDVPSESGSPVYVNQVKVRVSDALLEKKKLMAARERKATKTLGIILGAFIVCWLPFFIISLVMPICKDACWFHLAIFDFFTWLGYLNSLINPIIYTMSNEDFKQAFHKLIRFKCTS
# [20] = target: 5-hydroxytryptamine receptor 2B (Homo sapiens, UniProt P41595)
# Sequence of 5-hydroxytryptamine receptor 2B (P41595 whole entry): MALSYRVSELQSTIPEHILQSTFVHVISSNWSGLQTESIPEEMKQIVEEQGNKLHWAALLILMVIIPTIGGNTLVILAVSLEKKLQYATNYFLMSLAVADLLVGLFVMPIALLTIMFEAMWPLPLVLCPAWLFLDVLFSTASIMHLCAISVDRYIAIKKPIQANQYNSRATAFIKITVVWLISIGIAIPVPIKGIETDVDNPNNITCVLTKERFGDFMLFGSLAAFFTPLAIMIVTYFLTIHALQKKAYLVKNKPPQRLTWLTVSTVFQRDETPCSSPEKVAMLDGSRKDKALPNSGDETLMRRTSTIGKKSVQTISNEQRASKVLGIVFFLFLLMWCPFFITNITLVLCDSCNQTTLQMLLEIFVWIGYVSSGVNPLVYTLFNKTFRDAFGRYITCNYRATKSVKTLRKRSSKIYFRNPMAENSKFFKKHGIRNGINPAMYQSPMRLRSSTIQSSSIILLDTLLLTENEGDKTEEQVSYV
# [21] = target: T4, 5-hydroxytryptamine receptor 1A; remark: listed apart in the source
# [22] = target: 5-hydroxytryptamine receptor 5A (Homo sapiens, UniProt P47898); assay: Binding affinity to 5-HT5A receptor (unknown origin) assessed as inhibition constant
# Sequence of 5-hydroxytryptamine receptor 5A (P47898 whole entry): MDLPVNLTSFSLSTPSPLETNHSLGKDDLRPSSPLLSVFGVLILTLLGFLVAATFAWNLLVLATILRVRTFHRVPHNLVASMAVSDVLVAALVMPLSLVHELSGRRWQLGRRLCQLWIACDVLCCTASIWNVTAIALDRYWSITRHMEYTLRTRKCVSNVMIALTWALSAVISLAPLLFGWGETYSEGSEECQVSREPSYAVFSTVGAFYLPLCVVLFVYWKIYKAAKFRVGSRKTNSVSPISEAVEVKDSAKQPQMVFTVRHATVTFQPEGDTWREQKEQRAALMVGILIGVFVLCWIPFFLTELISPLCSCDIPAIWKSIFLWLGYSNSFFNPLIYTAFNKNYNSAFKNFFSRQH
# [23] = target: T3, 5-hydroxytryptamine receptor 7
# [24] = target: T4, 5-hydroxytryptamine receptor 1A; assay: Binding affinity to 5-HT1A receptor in human HeLa cell membrane assessed as inhibition constant by Packard top-counter analysis; format: cell membranes
compound,measurement,setting,value
COc1ccccc1N1CCN(CCNC(=O)c2ccncc2)CC1,Ki,[1],20 nM
[11CH3]N1CCN(c2cccc3c2OC(C(=O)Nc2ccc(N4CCOCC4)cc2)CC3)CC1 (racemic),Ki,[2],0.4 nM
c1cc2c3c(c1)[C@H]1CCC[C@H]1CN3CCNC2,K,[3],8 nM
same,K,[4],3 nM
O=S(=O)(c1ccccc1F)N1CCC[C@@H]1CCCN1CCN(c2ccccn2)CC1,Ki,[5],0.17 nM
COc1ccccc1N1CCN(CCNC(=O)c2ccccn2)CC1,Ki,[1],20 nM
O=S(=O)(c1ccc(F)cc1)N1CCC[C@@H]1CCCN1CCN(c2ccc(Cl)cc2)CC1,Ki,[5],0.32 nM
COc1ccccc1N1CCN(CCN(c2cccc(F)n2)[11C](=O)C2CCCCC2)CC1,Drug uptake,[6],8%
CCCN(CCC)[C@@H]1CCc2cccc(SC)c2C1,Ki,[7],0.6 nM
CCCN(CCCSC)C1CCc2cccc(O)c2C1 (racemic),Ki,[7],0.19 nM
COc1ccccc1N1CCN(CCN(c2ccccn2)C(=O)[C@H]2CC[C@@H](C[18F])CC2)CC1,Ratio,[8],0.58
COc1ccccc1N1CCN(CCN(c2cccc(F)n2)[11C](=O)N2CCCCC2)CC1,Ratio,[9],3
same,Ratio,[10],1.9
NC(=O)c1ccc(F)c2c1CC(N(C1CCC1)C1CCC1)CO2 (stereo unspecified),Ki,[7],0.6 nM
same,logD,[11],2.5
COc1ccccc1N1CCN(CCN(c2cccc(Br)n2)[11C](=O)N2CCCCC2)CC1,Ratio,[9],3
same,Ratio,[10],1.9
COc1cc(CCNCc2ccccc2OC)c(O[11CH3])cc1I,SUV,[12],0.8
O=C(C1CCCCC1)N(CCN1CCN(c2ccccc2OCCC[18F])CC1)c1ccccn1,Ratio,[13],7.5
CC1CCN(CCC[C@H]2CCCN2S(=O)(=O)c2ccc(F)cc2)CC1,Ki,[5],16 nM
CN1CCN(c2cccc3c2C[C@@H](NC(=O)c2ccc(N4CCOCC4)cc2)CC3)CC1,Ki,[2],0.46 nM
[11CH3]Oc1ccccc1N1CCN(CCCN/C(=N\C#N)c2ccccn2)CC1,Ki,[7],0.8 nM
COC(=O)N1CCN(c2ccc(NC(=O)C3CCc4cc(F)cc(N5CCN([11CH3])CC5)c4O3)cc2)CC1 (stereo unspecified),Ki,[2],0.5 nM
COc1cc(CCN)c(O[11CH3])cc1I,Drug uptake,[14],0.17
COc1c(Br)cc([18F])cc1CCNCc1cccc2c1OCO2,Ki,[15],1.7 nM
Cc1ccc(N2CCN([11CH3])CC2)c2nc(C(=O)Nc3ccc(N4CCOCC4)cc3)ccc12,Ki,[2],0.2 nM
COc1ccccc1N1CCN(CCN(c2ccccn2)C(=O)[C@H]2CC[C@H](C[18F])CC2)CC1,Ki,[7],0.9 nM
same,Ratio,[8],7.7
c1cc2c3c(c1)[C@H]1CCC[C@H]1N3CCNC2,K,[3],8 nM
same,K,[4],10 nM
CCCN(CCC)C1CCc2cccc(SC)c2C1 (racemic),IC50,[16],1.2 nM
CCc1cc(OC)cc(CCNCc2cccc(F)c2)c1OC,Ki,[15],2.4 nM
CN1CCN(c2cccc3c2C[C@H](NC(=O)c2ccc(OS(C)(=O)=O)cc2)CC3)CC1,Ki,[2],0.25 nM
CC1(NC(=O)c2ccc(N)cc2)CCN(CCCOc2ccc([18F])cc2)CC1,logD,[11],2.53
CC1CCN(CCC[C@H]2CCCN2S(=O)(=O)c2ccccc2F)CC1,Ki,[5],7.6 nM
O=C(C1CCCCC1)N(CCN1CCN(c2ccccc2O)CC1)c1ccccn1,Ki,[1],364 nM
same,Ki,[7],1.4 nM
Cc1[nH]c2ccc(NC(=O)c3ccc(F)cc3)cc2c1CCN(C)C,Ki,[17],> 260 nM
same,Ki,[18],> 260 nM
same,Ki,[19],> 260 nM
same,Ki,[20],> 260 nM
same,Ki,[21],> 260 nM
same,Ki,[22],> 260 nM
same,Ki,[23],> 260 nM
COc1ccccc1N1CCN(CCNC(=O)C2CC3CCC2CC3)CC1 (stereo unspecified),IC50,[16],1 nM
COc1cc(C(F)(F)F)c(OC)cc1CCNCc1ccccc1O[11CH3],Drug uptake,[14],0.82
COc1ccccc1N1CCN(CCN(C(=O)N2CCCCC2)c2cccc(F)n2)CC1,Ki,[24],0.51 nM
COc1ccccc1N1CCN(CCN(C(=O)N2CCCCC2)c2cccc(Br)n2)CC1,Ki,[24],0.31 nM
COc1ccccc1N1CCN(CCN(C(=O)c2ccc(F)c(C)c2)c2ccccn2)CC1,Ki,[1],13 nM
COc1ccccc1N1CCN(CCCN/C(=N\C#N)c2ccccn2)CC1,Ki,[1],20 nM
[11CH3]N1CCN(c2cccc3c2O[C@H](C(=O)Nc2ccc(N4CCOCC4)cc2)CC3)CC1,Ki,[2],0.6 nM
O=S(=O)(c1ccccc1F)N1CCC[C@@H]1CCCN1CCN(c2ccc(Cl)cc2)CC1,Ki,[5],0.22 nM
CCC(=O)Nc1ccc2[nH]cc(C3CCN(C)CC3)c2n1,Ki,[17],> 300 nM
same,Ki,[18],> 300 nM
same,Ki,[19],> 300 nM
same,Ki,[20],> 300 nM
same,Ki,[21],> 300 nM
same,Ki,[22],> 300 nM
same,Ki,[23],> 300 nM
O=C(NCCN1CCN(C2CCCc3ccccc32)CC1)c1ccc([18F])cc1 (stereo unspecified),Ki,[7],0.5 nM
COc1cc(Br)c(O[11CH3])cc1CCNCc1ccccc1OC,SUV,[12],0.8
COc1ccccc1N1CCN(CCNC(=O)C2CCCCC2)CC1,IC50,[16],4.3 nM
CC(=O)Nc1ccc2[nH]cc(C3CCN(C)CC3)c2n1,Ki,[17],> 240 nM
same,Ki,[18],> 240 nM
same,Ki,[19],> 240 nM
same,Ki,[20],> 240 nM
same,Ki,[21],> 240 nM
same,Ki,[22],> 240 nM
same,Ki,[23],> 240 nM
CCCN(CCCCC1C(=O)CC2(CCCC2)CC1=O)[C@H]1CCc2cccc(OC)c2C1,Ki,[7],0.9 nM
O=C(C1CCCCC1)N(CCN1CCN(c2ccccc2OCC[18F])CC1)c1ccccn1,Ratio,[13],5.5
[11CH3]Sc1cccc(C(=O)NC[C@H]2CCCN2CCc2ccccc2)c1,Ki,[7],160 nM
COc1cc(CCNCc2ccccc2F)c(O[11CH3])cc1I,Drug uptake,[14],0.17
COc1cccc2c1CCCC2CCCN1CCN(c2ccccc2)CC1 (stereo unspecified),Ki,[7],0.5 nM
COc1cc(Br)c(OC)c(CCNCc2cccc(F)c2)c1,Ki,[15],2.7 nM
CN1CCN(c2cc(F)cc3c(=O)cc(C(=O)Nc4ccc(N5CCOCC5)c(F)c4)oc23)CC1,Ki,[2],0.13 nM
O=C(NCCN1CCN(c2cccc(C(F)(F)F)n2)CC1)c1ccc(F)cc1,Ki,[7],0.5 nM
[11CH3]N1CCN(c2cccc3c2O[C@@H](C(=O)Nc2ccc(N4CCOCC4)cc2)CC3)CC1,Ki,[2],0.3 nM
COc1c(Br)cc([18F])cc1CCNCc1ccccc1O,Ki,[15],7.2 nM
CC(C)c1cc(-c2ccc(F)c3ccccc23)nc(N)n1,Ki,[20],0.3 nM
COc1ccccc1N1CCN(CCCCc2ccc3c(c2)oc(=O)n3C)CC1,Ki,[7],0.04 nM
